Test results from patent publication US20230355631A1, “PROCESS FOR IMPROVING FLUIDITY OF PALBOCICLIB ISETHIONATE AND COMPOSITION” (NANJING GRITPHARMA CO., LTD., priority 2020, published 2023).

Assay: Properties of the granules / powder mix (angle of repose, bulk density, tap density, compression index)
Type: physicochemical
Settings: bulk drug powder
Procedure: With reference to Example 7, 5 batches of samples 7-1, 7-2, 7-3, 7-4, and 7-5 were prepared by a capsule filling process after granules were prepared by dry granulation at different press roll pressures (a GL5-50 dry granulation machine with a 2.0 mm primary granulation sieve and a 1.0 mm secondary granulation sieve was used), and properties of the granules (including angle of repose, bulk density, and tap density), content uniformity of finished products, and other indexes were investigated separately. […] According to requirements of pharmacopoeia, the release rate of the samples is equal to or greater than 80% (Q) of the labelled amount in a medium with a pH of 1.2 within 30 minutes. Thus, the release rate of the various batches of samples (7-1, 7-2, 7-3, 7-4, and 7-5) was investigated in a medium with a pH of 1.2.
The palbociclib isethionate has poor fluidity and is a loose powder. […] Especially when capsules are filled in commercial batches in a large scale, the problem of difficulty in automatic filling at high speed will be caused due to poor fluidity of the powder. Moreover, the filled capsules have great differences in loading capacity, so that the content uniformity and the product quality are unqualified. […]

Fluidity of the raw material: poor fluidity
SMILES: CC(=O)c1c(C)c2cnc(Nc3ccc(N4CCNCC4)cn3)nc2n(C2CCCC2)c1=O.O=S(=O)(O)CCO [palbociclib isethionate]
